The results in this text go back to patent US20240208992A1, “MACROCYCLES AS CFTR MODULATORS” (Idorsia Pharmaceuticals Ltd, priority 2021, published 2024).

This assay concerns the target human F508del-CFTR (Homo sapiens, UniProt P13569, DEL508-508). In words: F508del-CFTR cell surface expression (corrector activity), DiscoveRx ß-galactosidase complementation chemiluminescence assay in recombinant U2OS cell line.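 On all read-outs here: U2OS cells co-expressing ProLink-tagged F508del-CFTR and a membrane-anchored enzyme acceptor, where more surface CFTR restores β-galactosidase activity measured by chemiluminescence.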 The conditions noted are these: for EC50: EC50, F508del-CFTR cell surface expression, U2OS cells, 16h compound incubation, geomean values; for Emax: U2OS, in relation to Emax of corrector lumacaftor (=100%), arithmetic mean values.

Sequence of human F508del-CFTR (P13569 with tags, fused parts or gaps DEL508-508): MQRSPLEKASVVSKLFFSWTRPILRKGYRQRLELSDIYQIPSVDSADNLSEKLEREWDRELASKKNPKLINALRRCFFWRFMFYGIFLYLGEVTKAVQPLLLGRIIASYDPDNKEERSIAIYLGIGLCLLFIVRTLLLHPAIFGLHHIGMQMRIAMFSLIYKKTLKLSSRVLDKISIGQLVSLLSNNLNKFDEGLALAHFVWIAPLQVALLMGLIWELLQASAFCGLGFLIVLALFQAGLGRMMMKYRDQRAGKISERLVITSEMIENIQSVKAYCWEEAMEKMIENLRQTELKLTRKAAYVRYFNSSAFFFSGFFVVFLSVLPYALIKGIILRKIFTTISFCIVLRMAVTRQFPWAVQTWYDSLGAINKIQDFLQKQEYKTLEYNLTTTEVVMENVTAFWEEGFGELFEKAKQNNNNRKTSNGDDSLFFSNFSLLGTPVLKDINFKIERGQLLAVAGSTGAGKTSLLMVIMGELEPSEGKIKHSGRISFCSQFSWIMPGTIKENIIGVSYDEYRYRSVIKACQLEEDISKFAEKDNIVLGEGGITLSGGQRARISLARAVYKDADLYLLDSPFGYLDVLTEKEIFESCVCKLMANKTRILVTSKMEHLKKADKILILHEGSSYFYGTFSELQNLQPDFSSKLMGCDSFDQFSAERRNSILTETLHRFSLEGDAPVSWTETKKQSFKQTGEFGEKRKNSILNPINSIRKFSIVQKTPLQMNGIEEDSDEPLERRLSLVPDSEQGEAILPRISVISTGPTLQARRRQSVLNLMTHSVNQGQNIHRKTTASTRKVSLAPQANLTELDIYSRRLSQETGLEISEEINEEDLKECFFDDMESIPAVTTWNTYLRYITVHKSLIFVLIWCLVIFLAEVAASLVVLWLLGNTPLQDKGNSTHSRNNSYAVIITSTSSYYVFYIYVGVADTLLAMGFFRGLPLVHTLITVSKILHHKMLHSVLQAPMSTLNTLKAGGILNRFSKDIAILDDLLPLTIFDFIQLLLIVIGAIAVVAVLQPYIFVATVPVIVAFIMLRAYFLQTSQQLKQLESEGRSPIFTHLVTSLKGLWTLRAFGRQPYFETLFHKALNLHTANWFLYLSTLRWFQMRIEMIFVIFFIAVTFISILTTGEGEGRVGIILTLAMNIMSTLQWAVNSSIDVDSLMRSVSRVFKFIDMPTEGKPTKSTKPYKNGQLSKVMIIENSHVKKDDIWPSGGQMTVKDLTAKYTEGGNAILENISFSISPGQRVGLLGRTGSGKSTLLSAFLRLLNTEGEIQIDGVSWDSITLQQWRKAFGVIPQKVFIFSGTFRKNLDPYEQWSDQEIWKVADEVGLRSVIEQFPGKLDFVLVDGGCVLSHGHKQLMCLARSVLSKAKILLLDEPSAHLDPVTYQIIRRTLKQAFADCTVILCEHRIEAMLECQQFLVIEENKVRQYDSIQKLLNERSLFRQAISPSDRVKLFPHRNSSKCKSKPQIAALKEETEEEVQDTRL

Usually EC50 stands for the concentration at which the effect is half-maximal. The term Emax denotes the maximal effect, on the per cent scale that the assay sets. As for `COCCN1CCN2C(=O)[C@H](CC(C)C)N(C)C(=O)C[C@@H](C(=O)NCCc3nc4c(s3)CCC4)NC(=O)c3c(cnc4ccccc34)OC[C@@H](Cc3ccccc3)NC(=O)[C@H]2C1` [Example 415, (9S,13S,19aR,22R)-22-benzyl-N-(2-(5,6-dihydro-4H-cyclopenta[d]thiazol-2-yl)ethyl)-13-isobutyl-18-(2-methoxyethyl)-12-methyl-7,11,14,20-tetraoxo-7,8,9,10,11,12,13,14,17,18,19,19a,20,21,22,23-hexadecahydro-16H-pyrazino[2′,1′:6,7][1]oxa[4,7,10,14]tetraazacycloheptadecino[17,16-c]quinoline-9-carboxamide], the half-maximal effective concentration (EC50) came out at 0.84 µM and the Emax was determined as 274%.

As to `COc1cccc(CCNC(=O)[C@@H]2CC(=O)N(C)[C@@H](CC(C)C)C(=O)N3CCN(CCO)C[C@@H]3C(=O)N[C@H](Cc3ccccc3)COc3ccc4ccccc4c3C(=O)N2)c1` [Example 416, (4aR,7R,18S,22S)-7-benzyl-3-(2-hydroxyethyl)-22-isobutyl-N-(3-methoxyphenethyl)-21-methyl-5,16,20,23-tetraoxo-2,3,4,4a,5,6,7,8,16,17,18,19,20,21,22,23-hexadecahydro-1H-naphtho[1,2-p]pyrazino[2,1-f][1]oxa[4,7,10,14]tetraazacycloheptadecine-18-carboxamide], the EC50 is 0.526 µM and the Emax amounted to 345%.

On to `COc1cccc(CCNC(=O)[C@@H]2CC(=O)N(C)[C@@H](CC(C)C)C(=O)N3CCN(C4CC4)C[C@@H]3C(=O)N[C@H](Cc3ccccc3)COc3ccc4nc(C)oc4c3C(=O)N2)c1` [Example 417, (8S,12S,18aR,21R)-21-benzyl-17-cyclopropyl-12-isobutyl-N-(3-methoxyphenethyl)-4,11-dimethyl-6,10,13,19-tetraoxo-6,7,8,9,10,11,12,13,16,17,18,18a,19,20,21,22-hexadecahydro-15H-oxazolo[4′,5′:5,6]benzo[1,2-p]pyrazino[2,1-f][1]oxa[4,7,10,14]tetraazacycloheptadecine-8-carboxamide], for which the EC50 amounted to 0.437 µM and the Emax is 343%.

Take `CCOc1cccc(CCNC(=O)[C@@H]2CC(=O)N(C)[C@@H](CC(C)C)C(=O)N3CCN(C4CC4)C[C@@H]3C(=O)N[C@H](Cc3ccccc3)COc3ccc4nc(C)oc4c3C(=O)N2)c1` [Example 418, (8S,12S,18aR,21R)-21-benzyl-17-cyclopropyl-N-(3-ethoxyphenethyl)-12-isobutyl-4,11-dimethyl-6,10,13,19-tetraoxo-6,7,8,9,10,11,12,13,16,17,18,18a,19,20,21,22-hexadecahydro-15H-oxazolo[4′,5′:5,6]benzo[1,2-p]pyrazino[2,1-f][1]oxa[4,7,10,14]tetraazacycloheptadecine-8-carboxamide]: the 50% effective concentration (EC50) was determined as 0.276 µM and the maximal response (Emax) is 259%.

For the compound `Cc1nc2ccc3c(c2o1)C(=O)N[C@H](C(=O)NCCc1cccc(OC(F)F)c1)CC(=O)N(C)[C@@H](CC(C)C)C(=O)N1CCN(C2CC2)C[C@@H]1C(=O)N[C@H](Cc1ccccc1)CO3` [Example 419, (8S,12S,18aR,21R)-21-benzyl-17-cyclopropyl-N-(3-(difluoromethoxy)phenethyl)-12-isobutyl-4,11-dimethyl-6,10,13,19-tetraoxo-6,7,8,9,10,11,12,13,16,17,18,18a,19,20,21,22-hexadecahydro-15H-oxazolo[4′,5′:5,6]benzo[1,2-p]pyrazino[2,1-f][1]oxa[4,7,10,14]tetraazacycloheptadecine-8-carboxamide], the EC50 was 0.358 µM and the Emax stood at 243%.

On to `Cc1nc2ccc3c(c2o1)C(=O)N[C@H](C(=O)NCCc1nc2c(s1)CCC2)CC(=O)N(C)[C@@H](CC(C)C)C(=O)N1CCN(C2CC2)C[C@@H]1C(=O)N[C@H](Cc1ccccc1)CO3` [Example 420, (8S,12S,18aR,21R)-21-benzyl-17-cyclopropyl-N-(2-(5,6-dihydro-4H-cyclopenta[d]thiazol-2-yl)ethyl)-12-isobutyl-4,11-dimethyl-6,10,13,19-tetraoxo-6,7,8,9,10,11,12,13,16,17,18,18a,19,20,21,22-hexadecahydro-15H-oxazolo[4′,5′:5,6]benzo[1,2-p]pyrazino[2,1-f][1]oxa[4,7,10,14]tetraazacycloheptadecine-8-carboxamide], for which the EC50 is 0.437 µM and the Emax was 231%.

Consider `Cc1nc2ccc3c(c2o1)C(=O)N[C@H](C(=O)NCCc1ccc2c(c1)OCCO2)CC(=O)N(C)[C@@H](CC(C)C)C(=O)N1CCN(C2CC2)C[C@@H]1C(=O)N[C@H](Cc1ccccc1)CO3` [Example 421, (8S,12S,18aR,21R)-21-benzyl-17-cyclopropyl-N-(2-(2,3-dihydrobenzo[b][1,4]dioxin-6-yl)ethyl)-12-isobutyl-4,11-dimethyl-6,10,13,19-tetraoxo-6,7,8,9,10,11,12,13,16,17,18,18a,19,20,21,22-hexadecahydro-15H-oxazolo[4′,5′:5,6]benzo[1,2-p]pyrazino[2,1-f][1]oxa[4,7,10,14]tetraazacycloheptadecine-8-carboxamide], for which the half-maximal effective concentration (EC50) is 0.391 µM and the Emax amounted to 320%.

Consider `Cc1nc2ccc3c(c2o1)C(=O)N[C@H](C(=O)NCCc1cccc(C(C)(F)F)c1)CC(=O)N(C)[C@@H](CC(C)C)C(=O)N(CCC1CCCCC1)CC(=O)N[C@H](Cc1ccccc1)CO3` [Example 422, (8R,14S,18S)-8-benzyl-12-(2-cyclohexylethyl)-N-(3-(1,1-difluoroethyl)phenethyl)-14-isobutyl-2,15-dimethyl-10,13,16,20-tetraoxo-7,8,9,10,11,12,13,14,15,16,17,18,19,20-tetradecahydrooxazolo[4′,5′:5,6]benzo[1,2-p][1]oxa[4,7,10,14]tetraazacycloheptadecine-18-carboxamide], for which the EC50 was found to be 0.192 µM and the Emax turned out to be 193%.

On to `COc1cccc(CCNC(=O)[C@@H]2CC(=O)N(C)[C@@H](CC(C)C)C(=O)N3CCCC[C@@H]3C(=O)N[C@H](Cc3ccccc3)COc3ccc4c(cnn4C)c3C(=O)N2)c1` [Example 423, (8S,12S,18aR,21R)-21-benzyl-12-isobutyl-N-(3-methoxyphenethyl)-3,11-dimethyl-6,10,13,19-tetraoxo-6,7,8,9,10,11,12,13,16,17,18,18a,19,20,21,22-hexadecahydro-3H,15H-pyrido[2′,1′:6,7][1]oxa[4,7,10,14]tetraazacycloheptadecino[16,17-e]indazole-8-carboxamide], for which the EC50 came out at 0.278 µM and the Emax came to 239%.

Consider `COc1cccc(CCNC(=O)[C@@H]2CC(=O)N(C)[C@@H](CC(C)C)C(=O)N3CCOC[C@@H]3C(=O)N[C@H](Cc3ccccc3)COc3ccc4c(cnn4C)c3C(=O)N2)c1` [Example 424, (8S,12S,18aR,21R)-21-benzyl-12-isobutyl-N-(3-methoxyphenethyl)-3,11-dimethyl-6,10,13,19-tetraoxo-6,7,8,9,10,11,12,13,15,16,18,18a,19,20,21,22-hexadecahydro-3H-[1,4]oxazino[3′,4′:6,7][1]oxa[4,7,10,14]tetraazacycloheptadecino[16,17-e]indazole-8-carboxamide], for which the EC50 is 0.831 µM and the Emax turned out to be 235%.
